According to US7166589B2, “Quinoline derivatives” (Hoffmann-La Roche Inc., priority 2001, dated 2007):

Molecular target: T1, mouse NPY5-receptor (mNPY5) (Mus musculus, UniProt O70342)
T1 construct: The full-length cDNA encoding the mouse NPY5 (mNPY5) receptor was amplified from mouse brain cDNA; expressed in transfected cells
T1 sequence (O70342 1-466): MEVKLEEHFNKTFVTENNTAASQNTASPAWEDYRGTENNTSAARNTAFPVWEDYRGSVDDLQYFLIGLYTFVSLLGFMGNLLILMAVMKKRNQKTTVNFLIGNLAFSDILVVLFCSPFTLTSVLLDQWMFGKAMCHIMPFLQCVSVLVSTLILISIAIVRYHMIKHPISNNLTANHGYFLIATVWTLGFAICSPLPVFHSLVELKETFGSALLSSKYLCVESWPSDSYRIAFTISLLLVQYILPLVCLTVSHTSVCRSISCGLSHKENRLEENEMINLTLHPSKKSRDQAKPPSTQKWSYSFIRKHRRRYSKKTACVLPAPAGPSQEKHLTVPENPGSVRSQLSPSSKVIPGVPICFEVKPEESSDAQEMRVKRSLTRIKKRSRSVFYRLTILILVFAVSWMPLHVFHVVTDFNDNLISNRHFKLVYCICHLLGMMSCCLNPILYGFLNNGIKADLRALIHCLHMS
Assay: Radioligand competition binding, [125I]PYY, membranes of HEK293 cells expressing recombinant mouse NPY5 receptor
Conditions: 100 pM [125I]labelled peptide YY, 1 h at 22° C.
From the text: The full-length cDNA encoding the mouse NPY5 (mNPY5) receptor was amplified from mouse brain cDNA using specific primers, designed based on the published sequence, and Pfu DNA-Polymerase (Stratagene). The amplification product was subcloned into the mammalian expression vector pcDNA3 using Eco RI and XhoI restriction sites. Positive clones were sequenced and one clone, encoding the published sequence was selected for generation of stable cell clones.
Human embryonic kidney 293 (HEK293) cells were transfected with 10 μg mNPY5 DNA using the lipofectamine reagent (Gibco BRL) according to the manufacturer's instruction. Two days after transfection, geneticin selection (1 mg/ml) was initiated and several stable clones were isolated. One clone was further used for pharmacological characterization.
Human embryonic kidney 293 cells (HEK293), expressing recombinant mouse NPY5-receptor (mNPY5) were broken by three freeze/thawing cycles in hypotonic Tris buffer (5 mM, pH 7.4, 1 mM MgCl2), homogenized and centrifuged at 72,000×g for 15 min. The pellet was washed twice with 75 mM Tris buffer, pH 7.4, containing 25 mM MgCl2 and 250 mM sucrose, 0.1 mM phenylmethylsulfonylfluoride and 0.1 mM 1,10-pheneanthrolin, resuspended in the same buffer and stored in aliquots at −80° C. Protein was determined according to the method of Lowry using bovine serum albumine (BSA) as a standard.

| IC50 | Compound |
| --- | --- |
| 0.13 µM | Cc1cc(N2CCCC2)c2ccc(CNc3ccc(C#N)cc3)cc2n1 [Example 13, 4-[(2-Methyl-4-pyrrolidin-1-yl-quinolin-7-ylmethyl)-amino]-benzonitrile] |
| 0.022 µM | Cc1cc(N2CCCC2)c2ccc(COc3ccc(C#N)cc3)cc2n1 [Example 5, 4-(2-Methyl-4-pyrrolidin-1-yl-quinolin-7-ylmethoxy)-benzonitrile] |
